What was measured:
Test in all cases: Kinase panel study
Type in all cases: biochemical
Conditions in all cases: read-out: Percentage of inhibition; for inhibition at 1 µM: 1000nM; for inhibition at 10 µM: 10000nM
ABL1 T315I = biological target: T1, ABL1 T315I (Homo sapiens, UniProt P00519, T315I)
T1 construct: purchased Thermo Fisher Scientific
How it was run: (§1)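 Inhibition was measured in an outsourced in vitro kinase panel using the ZLyte or Adapta format under the provider's standard procedures. Values are percent inhibition at 10 µM or 1 µM compound, and IC50s were also obtained.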

AMPK (A1/B2/G2) = biological target: T2, AMPK (A1/B2/G2) (Homo sapiens, UniProt Q13131)
T2 construct: purchased Thermo Fisher Scientific
How it was run: as §1

AMPKA2/B1/G1 = biological target: T3, AMPKA2/B1/G1 (Homo sapiens, UniProt P54646)
T3 construct: purchased Thermo Fisher Scientific
How it was run: as §1

CAMK4 (CaMKIV) = biological target: T4, CAMK4 (CaMKIV) (Homo sapiens, UniProt Q16566)
T4 construct: purchased Thermo Fisher Scientific
How it was run: as §1

CDK5/p25 = biological target: T5, CDK5/p25 (Homo sapiens, UniProt Q00535)
T5 construct: purchased Thermo Fisher Scientific
How it was run: as §1

FGFR4 = biological target: T6, FGFR4 (Homo sapiens, UniProt P22455)
T6 construct: purchased Thermo Fisher Scientific
How it was run: as §1

JAK2 = biological target: T7, JAK2 (Homo sapiens, UniProt O60674)
T7 construct: purchased Thermo Fisher Scientific
How it was run: as §1

[1] = biological target: T8, PIK3CA E542K/PIK3R1 (p11 0 alpha E542K/p85 alpha) (Homo sapiens, UniProt P42336, E542K)
T8 construct: purchased Thermo Fisher Scientific
How it was run: as §1

PRKD1 (PKC mu) = biological target: T9, PRKD1 (PKC mu) (Homo sapiens, UniProt Q15139)
T9 construct: purchased Thermo Fisher Scientific
T9 sequence (Q15139 1-912): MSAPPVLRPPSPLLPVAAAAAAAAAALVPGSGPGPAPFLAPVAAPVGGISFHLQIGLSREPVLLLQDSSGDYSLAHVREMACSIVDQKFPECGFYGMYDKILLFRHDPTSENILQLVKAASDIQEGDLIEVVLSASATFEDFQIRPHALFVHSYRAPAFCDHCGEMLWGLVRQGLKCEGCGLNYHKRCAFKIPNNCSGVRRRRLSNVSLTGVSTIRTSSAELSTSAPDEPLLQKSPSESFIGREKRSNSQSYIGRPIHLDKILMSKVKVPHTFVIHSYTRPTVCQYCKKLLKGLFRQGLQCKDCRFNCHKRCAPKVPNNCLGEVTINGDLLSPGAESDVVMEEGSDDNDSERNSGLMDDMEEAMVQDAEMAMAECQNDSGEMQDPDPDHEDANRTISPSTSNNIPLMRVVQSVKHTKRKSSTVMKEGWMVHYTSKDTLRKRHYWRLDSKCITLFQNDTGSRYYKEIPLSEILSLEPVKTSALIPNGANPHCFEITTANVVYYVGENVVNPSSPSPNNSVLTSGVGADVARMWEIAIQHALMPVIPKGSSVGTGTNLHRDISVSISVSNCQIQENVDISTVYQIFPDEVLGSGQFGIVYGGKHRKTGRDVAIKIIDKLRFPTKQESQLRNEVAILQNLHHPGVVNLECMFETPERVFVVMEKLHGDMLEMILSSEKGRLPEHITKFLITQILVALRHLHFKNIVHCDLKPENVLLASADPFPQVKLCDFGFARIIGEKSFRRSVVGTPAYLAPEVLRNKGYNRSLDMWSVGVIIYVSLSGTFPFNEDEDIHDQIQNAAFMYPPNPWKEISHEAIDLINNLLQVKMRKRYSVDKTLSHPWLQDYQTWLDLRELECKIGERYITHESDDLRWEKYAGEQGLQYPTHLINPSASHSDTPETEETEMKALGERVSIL
How it was run: as §1

SRC = biological target: T10, SRC (Homo sapiens, UniProt P12931)
T10 construct: purchased Thermo Fisher Scientific
How it was run: as §1

T10 sequence (P12931 whole entry): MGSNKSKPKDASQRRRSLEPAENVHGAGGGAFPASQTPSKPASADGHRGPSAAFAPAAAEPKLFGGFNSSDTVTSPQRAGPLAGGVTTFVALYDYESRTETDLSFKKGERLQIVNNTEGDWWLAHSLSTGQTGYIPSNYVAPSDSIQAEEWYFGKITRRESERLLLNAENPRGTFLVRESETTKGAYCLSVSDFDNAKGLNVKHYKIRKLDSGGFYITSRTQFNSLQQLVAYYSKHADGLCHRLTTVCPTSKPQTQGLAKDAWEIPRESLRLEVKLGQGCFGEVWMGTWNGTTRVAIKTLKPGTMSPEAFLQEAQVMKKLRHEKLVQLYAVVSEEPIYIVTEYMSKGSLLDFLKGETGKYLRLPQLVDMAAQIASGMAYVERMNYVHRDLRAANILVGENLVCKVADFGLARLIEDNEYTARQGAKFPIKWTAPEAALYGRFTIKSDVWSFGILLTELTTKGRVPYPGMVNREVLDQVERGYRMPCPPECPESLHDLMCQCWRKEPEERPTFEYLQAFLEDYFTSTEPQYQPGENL
T7 sequence (O60674 whole entry): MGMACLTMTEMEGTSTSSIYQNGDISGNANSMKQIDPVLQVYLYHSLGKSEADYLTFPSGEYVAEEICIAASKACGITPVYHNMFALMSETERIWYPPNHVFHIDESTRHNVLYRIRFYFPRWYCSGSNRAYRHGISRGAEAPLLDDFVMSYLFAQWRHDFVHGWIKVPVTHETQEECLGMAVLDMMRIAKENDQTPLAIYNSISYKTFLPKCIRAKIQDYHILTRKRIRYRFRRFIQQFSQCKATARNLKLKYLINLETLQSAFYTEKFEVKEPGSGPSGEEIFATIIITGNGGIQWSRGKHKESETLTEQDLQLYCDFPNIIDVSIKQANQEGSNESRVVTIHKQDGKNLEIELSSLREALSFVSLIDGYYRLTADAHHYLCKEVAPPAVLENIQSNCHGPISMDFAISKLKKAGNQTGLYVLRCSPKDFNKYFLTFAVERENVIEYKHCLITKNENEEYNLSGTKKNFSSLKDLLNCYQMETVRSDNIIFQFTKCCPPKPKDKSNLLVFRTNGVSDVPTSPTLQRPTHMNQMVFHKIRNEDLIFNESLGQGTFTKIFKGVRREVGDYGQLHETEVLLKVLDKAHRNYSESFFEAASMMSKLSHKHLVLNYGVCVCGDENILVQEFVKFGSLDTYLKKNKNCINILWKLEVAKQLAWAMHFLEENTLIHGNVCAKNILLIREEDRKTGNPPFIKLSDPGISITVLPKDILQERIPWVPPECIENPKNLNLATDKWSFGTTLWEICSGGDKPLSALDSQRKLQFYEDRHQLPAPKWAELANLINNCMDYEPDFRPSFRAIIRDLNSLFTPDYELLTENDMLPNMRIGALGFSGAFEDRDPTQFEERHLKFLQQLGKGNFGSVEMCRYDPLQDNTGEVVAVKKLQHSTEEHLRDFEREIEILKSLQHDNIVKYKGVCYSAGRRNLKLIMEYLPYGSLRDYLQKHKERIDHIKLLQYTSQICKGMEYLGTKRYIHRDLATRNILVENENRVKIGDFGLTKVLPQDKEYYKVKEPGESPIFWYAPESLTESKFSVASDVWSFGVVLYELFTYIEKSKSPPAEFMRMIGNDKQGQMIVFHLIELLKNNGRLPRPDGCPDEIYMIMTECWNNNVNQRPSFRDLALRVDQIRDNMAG
T5 sequence (Q00535 whole entry): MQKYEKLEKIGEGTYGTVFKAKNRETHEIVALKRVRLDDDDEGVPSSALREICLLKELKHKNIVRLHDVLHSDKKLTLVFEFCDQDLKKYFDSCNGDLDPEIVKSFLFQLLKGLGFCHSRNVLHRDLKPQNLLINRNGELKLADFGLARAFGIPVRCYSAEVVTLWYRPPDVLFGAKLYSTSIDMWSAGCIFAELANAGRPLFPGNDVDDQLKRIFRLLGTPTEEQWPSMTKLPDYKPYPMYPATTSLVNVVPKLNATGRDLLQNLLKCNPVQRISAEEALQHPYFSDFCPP
T5 sequence (Q15078 99-307 partner limits assumed): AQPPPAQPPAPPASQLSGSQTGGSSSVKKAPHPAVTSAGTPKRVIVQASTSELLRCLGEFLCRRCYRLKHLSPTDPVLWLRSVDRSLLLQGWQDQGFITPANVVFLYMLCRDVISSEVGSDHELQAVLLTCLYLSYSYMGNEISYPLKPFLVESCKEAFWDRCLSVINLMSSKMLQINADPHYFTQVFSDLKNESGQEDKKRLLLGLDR
T8 sequence (P42336 whole entry E542K): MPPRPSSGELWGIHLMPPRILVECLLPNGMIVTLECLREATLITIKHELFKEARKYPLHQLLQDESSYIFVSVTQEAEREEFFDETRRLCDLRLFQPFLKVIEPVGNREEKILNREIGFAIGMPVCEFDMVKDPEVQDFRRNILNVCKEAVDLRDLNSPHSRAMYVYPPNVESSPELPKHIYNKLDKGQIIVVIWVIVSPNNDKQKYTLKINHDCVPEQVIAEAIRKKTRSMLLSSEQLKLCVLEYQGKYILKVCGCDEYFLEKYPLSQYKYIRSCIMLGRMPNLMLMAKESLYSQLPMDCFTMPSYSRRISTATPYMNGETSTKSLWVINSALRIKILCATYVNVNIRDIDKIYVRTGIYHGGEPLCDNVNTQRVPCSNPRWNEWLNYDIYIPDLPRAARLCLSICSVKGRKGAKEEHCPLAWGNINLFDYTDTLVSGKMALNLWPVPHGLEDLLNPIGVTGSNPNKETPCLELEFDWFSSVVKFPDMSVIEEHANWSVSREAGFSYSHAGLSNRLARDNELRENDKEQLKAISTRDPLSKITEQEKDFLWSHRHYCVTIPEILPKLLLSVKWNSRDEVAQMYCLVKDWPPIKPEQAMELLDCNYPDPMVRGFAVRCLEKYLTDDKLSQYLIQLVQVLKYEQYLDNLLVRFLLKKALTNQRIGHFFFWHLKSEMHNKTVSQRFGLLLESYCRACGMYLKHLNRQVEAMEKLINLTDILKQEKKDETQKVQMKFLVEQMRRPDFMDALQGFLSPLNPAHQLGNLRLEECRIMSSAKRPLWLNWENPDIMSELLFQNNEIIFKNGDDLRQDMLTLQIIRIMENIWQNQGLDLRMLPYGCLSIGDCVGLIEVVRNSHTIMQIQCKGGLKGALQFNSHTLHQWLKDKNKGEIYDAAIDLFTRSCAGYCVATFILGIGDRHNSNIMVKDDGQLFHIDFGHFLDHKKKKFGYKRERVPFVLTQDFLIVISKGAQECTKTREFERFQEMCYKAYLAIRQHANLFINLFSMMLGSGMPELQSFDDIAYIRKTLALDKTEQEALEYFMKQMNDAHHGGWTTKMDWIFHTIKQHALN
T8 sequence (P27986 whole entry partner): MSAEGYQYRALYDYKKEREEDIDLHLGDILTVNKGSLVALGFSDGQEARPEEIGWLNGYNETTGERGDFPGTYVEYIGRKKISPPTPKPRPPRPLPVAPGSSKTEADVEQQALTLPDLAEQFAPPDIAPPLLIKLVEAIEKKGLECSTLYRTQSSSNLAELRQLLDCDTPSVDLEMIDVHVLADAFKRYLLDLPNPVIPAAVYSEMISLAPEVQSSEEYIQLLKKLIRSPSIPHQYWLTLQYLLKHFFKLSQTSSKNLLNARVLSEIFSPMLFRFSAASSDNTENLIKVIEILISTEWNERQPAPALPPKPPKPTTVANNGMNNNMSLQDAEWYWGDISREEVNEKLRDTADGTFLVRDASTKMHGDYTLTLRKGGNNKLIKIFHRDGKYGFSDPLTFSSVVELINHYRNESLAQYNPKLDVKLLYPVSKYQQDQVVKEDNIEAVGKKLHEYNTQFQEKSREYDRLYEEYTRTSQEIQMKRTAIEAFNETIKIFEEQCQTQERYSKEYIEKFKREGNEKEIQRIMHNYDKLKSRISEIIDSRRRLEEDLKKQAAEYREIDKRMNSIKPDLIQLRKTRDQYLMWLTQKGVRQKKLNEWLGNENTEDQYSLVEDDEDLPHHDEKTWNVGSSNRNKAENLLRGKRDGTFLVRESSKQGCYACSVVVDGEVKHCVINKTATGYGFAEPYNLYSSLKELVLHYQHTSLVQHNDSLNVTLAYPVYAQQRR
T6 sequence (P22455 22-802): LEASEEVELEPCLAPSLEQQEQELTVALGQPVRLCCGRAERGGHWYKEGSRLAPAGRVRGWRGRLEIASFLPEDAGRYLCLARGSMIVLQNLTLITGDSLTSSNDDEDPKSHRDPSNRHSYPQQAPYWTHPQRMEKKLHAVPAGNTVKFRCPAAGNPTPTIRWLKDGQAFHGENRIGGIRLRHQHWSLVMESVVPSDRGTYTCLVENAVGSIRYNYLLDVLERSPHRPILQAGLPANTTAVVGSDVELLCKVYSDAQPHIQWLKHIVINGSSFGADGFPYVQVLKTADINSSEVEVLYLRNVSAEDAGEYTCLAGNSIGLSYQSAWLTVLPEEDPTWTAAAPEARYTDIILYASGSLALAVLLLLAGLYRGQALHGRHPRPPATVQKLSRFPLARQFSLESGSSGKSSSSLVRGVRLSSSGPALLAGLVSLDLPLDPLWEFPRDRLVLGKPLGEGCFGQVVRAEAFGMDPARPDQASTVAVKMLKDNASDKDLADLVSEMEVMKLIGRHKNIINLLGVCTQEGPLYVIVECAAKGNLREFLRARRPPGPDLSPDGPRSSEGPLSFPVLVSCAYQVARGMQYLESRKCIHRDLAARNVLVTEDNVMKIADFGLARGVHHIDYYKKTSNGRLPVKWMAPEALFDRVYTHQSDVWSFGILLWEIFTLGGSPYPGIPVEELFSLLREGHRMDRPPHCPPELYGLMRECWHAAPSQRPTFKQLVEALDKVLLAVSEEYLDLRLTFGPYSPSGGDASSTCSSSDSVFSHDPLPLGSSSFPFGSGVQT

| Structure (SMILES) | inhibition at 1 µM (ABL1 T315I) [%] | inhibition at 10 µM (ABL1 T315I) [%] | inhibition at 1 µM (AMPK (A1/B2/G2)) [%] | inhibition at 10 µM (AMPK (A1/B2/G2)) [%] | inhibition at 1 µM (AMPKA2/B1/G1) [%] | inhibition at 10 µM (AMPKA2/B1/G1) [%] | inhibition at 1 µM (CAMK4 (CaMKIV)) [%] | inhibition at 10 µM (CAMK4 (CaMKIV)) [%] | inhibition at 1 µM (CDK5/p25) [%] | inhibition at 10 µM (CDK5/p25) [%] | inhibition at 1 µM (FGFR4) [%] | inhibition at 10 µM (FGFR4) [%] | inhibition at 1 µM (JAK2) [%] | inhibition at 10 µM (JAK2) [%] | inhibition at 1 µM [1] [%] | inhibition at 10 µM [1] [%] | inhibition at 1 µM (PRKD1 (PKC mu)) [%] | inhibition at 10 µM (PRKD1 (PKC mu)) [%] | inhibition at 1 µM (SRC) [%] | inhibition at 10 µM (SRC) [%] |
| --- | --- | --- | --- | --- | --- | --- | --- | --- | --- | --- | --- | --- | --- | --- | --- | --- | --- | --- | --- | --- |
| COc1ccc2c(c1OC)c(=O)n1c3ccc(O)cc3c3ccnc2c31 [MW01, 5-Hydroxy-10,11-dimethoxy-9H-benzo[c]indolo[3,2,1-ij][1,5]naphthyridin-9-one] | 9 | 34 | -6 | 5 | 8 | 32 | -3 | 16 | 4 | 12 | 13 | 37 | 15 | 48 | 94 | 96 | 28 | 49 | 0 | 16 |
| COc1ccc2cc3c(N)nn(C(=O)c4cccc(N(C)C)c4)c3nc2c1 [MW05, (3-Amino-7-methoxypyrazolo[3,4-b]quinolin-1-yl)-[3-(dimethylamino)phenyl]methanone] | 8 | 5 | -10 | 4 | 5 | 0 | 2 | -9 | 4 | 8 | 13 | -4 | -3 | -20 | 22 | 68 | 5 | 9 | 6 | 3 |
